# Results from US20100028892A1, “YEAST BASED EXPRESSION OF PROTEASES AND METHODS OF USE” (Burnham Institute for Medical Research, priority 2008, published 2010).
# Target: T1, Caspase1 activated with Asc (Homo sapiens, UniProt P29466)
# T1 construct: Caspase (all full-length zymogen proforms) expression plasmids; FLAG (C); expressed in transfected cells; host or cells: Saccharomyces cerevisiae (EGY191 or EGY48)
# T1 sequence (P29466 120-297 limits assumed): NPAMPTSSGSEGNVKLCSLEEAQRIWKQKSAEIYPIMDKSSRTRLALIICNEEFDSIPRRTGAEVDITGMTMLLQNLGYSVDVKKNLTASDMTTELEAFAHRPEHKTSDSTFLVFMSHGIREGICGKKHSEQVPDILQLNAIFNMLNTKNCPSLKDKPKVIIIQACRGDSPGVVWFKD
# T1 sequence (P29466 317-404 limits assumed): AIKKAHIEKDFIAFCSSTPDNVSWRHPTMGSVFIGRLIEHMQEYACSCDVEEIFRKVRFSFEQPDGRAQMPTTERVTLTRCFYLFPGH
# Assay: yeast 384 well β-galactosidase reporter assay, Caspase1 activated with Asc
# Format: cell-based
# Conditions: Caspase1 activated with Asc in yeast, 384 well β-galactosidase activity assay
# Excerpt: When converting the yeast-based protease reporter system to HTS assay, conditions from agar plates to liquid medium in microtiter wells must be revised. This revision comprises, utilizing the measured β-galactosidase produced by yeast carrying the Caspase-cleavable reporter proteins, and assaying the colorimetric product (OD620nm) derived from X-gal substrate in 384 well plates, as a measure of the lacZ reporter gene activity. We compared β-galactosidase activity produced in the presence or absence of the broad-spectrum caspase inhibitory compound, zVAD-fmk ([…]-Valinyl-Alaninyl-Aspartyl-fluoromethylketone). […] Note that it was determined that it is not advisible to employ glucose in yeast media because it represses the GAL1 promoter used in some plasmids. […]
# Yeast expressing various Caspases alone (at high levels) or in combination with upstream activators (at low levels) and cleavable substrates containing appropriate tetrapeptides reorganized by these proteases were used in 384 well β-galactosidase activity assays to assess inhibition by zVAD-fmk. The compound was titrated into assays at various concentrations and percentage inhibition was determined.
# Assays were performed in a total volume of […] in triplicate. […] Absorbance at 620 nm was measured 2-3 days after culture at 30° C.
substance,measurement,value
benzoyl-Valinyl-Alaninyl-Aspartyl-fluoromethylketone [zVAD-fmk],IC50,1 µM
